System: B16-F10 murine melanoma cells
Test: Experimental metastasis assay (lung metastases after i.v. injection of cancer cells)
Assay type: in vivo, female nude (CD-1)BR mice
Conditions: for reduction in the number of lung metastases with respect to untreated controls: DOX 5 mg/kg i.p. +24 h, NAC 2 g/kg p.o. daily
Description: DOX was used in the form of commercial injectable product, containing 10 mg of drug per vial (Adriblastina®, Farmitalia - Carlo Erba, Milano, Italia), to be dissolved in distilled water when injected. In the experiments wherein the oral administration was provided, NAC was used in the form of commercial product containing 200 mg of NAC per dosage (Fluimucil®, Zambon Italia, Vicenza), directly dissolved in the drinking water of mice. In the experiments wherein the parenteral (i.p. or i.v.) administration of NAC was foreseen, a 98% pure laboratory reagent (Sigma Chemical Co., St. Louis, MO, U.S.A.) was used, dissolved in a phosphate buffer (PBS), pH 7.4, and furtherly brought to neutrality with NaOH 0.1 N ("spontaneous" metastasis assays) or in NaCl 0.15 M, taking the solution to pH 7.0 (experimental metastasis assays).
A total of 385 adult mice was used (Charles River, Calco, Como, Italia) of which 196 female nude (CD-1)BR mice, aged 7 weeks, average weight of 25 g and 189 female C57BL/6 mice aged 6-8 weeks, average weight of 20 g, used in the experimental metastasis assays and in those of "spontaneous" metastases respectively. The (CD-1)BR mice were housed in sterile cages with filtering cover, in a number of 3 animals per cage, at a room temperature of 26-28°C, with a relative humidity of 55%, a ventilation accounting for 12-15 air/h renewals and a 12 hours day/night cycle; the C57BL/6 mice were stabulated in a number of 5 animals per cage, at a temperature of 25-27°C, with a relative humidity of 50% and a 12 hours day/night cycle. The (CD-1)BR mice received a special diet sterilized under vacuum (Mucedola S.r.L, Settimo Milanese, Milano, Italia) and sterilized drinking water; the C57BL/6 mice received a standard rodent diet (MIL Topi e Ratti, Morini, S. Polo d'Enza, Reggio Emilia, Italia) and drinking water ad libitum throughout the duration of the experiments. Within the experiments wherein the sacrifice of mice was foreseen at a scheduled time, killing was carried out by means of ethyl ether anaesthesia and subsequent cervical dislocation. The stabulation and all the animal treatments were carried out in accordance with the national and Community guidelines (D.L. 27.01.1992 N. 116; 86/609/EEC Directive).
In this kind of assay cancer cells were injected in the lateral tail vein, in order to avoid the formation of primary tumors and directly provide the spread of metastases in the lungs. B16-F10 murine melanoma cells were used, resuspended in serum-free Eagle's MEM medium, and injected i.v. in a volume of 100 µl (5 x 10^4 cells/mouse). As reported in Table 1, wherein also the number of mice included in each experimental group is indicated, 4 groups were always involved in each experiment, namely a control group (either untreated mice or treated with NaCl 0.15M), a group of mice treated with DOX only, a group of mice treated with NAC only and a group of mice treated with the two combined drugs.
In particular, in experiment #1 DOX was injected in a single dose (5 mg/kg body weight) by i.p. route 24 hours after injection of cancer cells, whereas NAC was administered every day with drinking water, at a calculated dose of 2 g/kg body weight, starting 3 days before injection of cancer cells and continuing throughout the duration of the experiment.
In experiment #2 DOX was injected in a single dose (10 mg/kg body weight) by i.v. route 3 days after injection of cancer cells, whereas NAC was administered daily by i.p. route (1 g/kg body weight), starting 8 hours before injection of cancer cells and continuing for 8 days.
In experiment #3 both DOX and NAC were injected by i.v. route 24 hours after injection of cancer cells, […]; in the combined treatment therefore the two drugs were injected after being mixed into the same syringe.
In experiment #4, wherein the control and DOX groups were the same as experiment #3, NAC was injected by i.v. route together with cancer cells, dissolved in the culture medium at a concentration of 10 mM. […]

[1] = experiment #1, DOX 5 mg/kg i.p. +24h, NAC 2 g/kg p.o. -3/+25 days, DOX+NAC same doses, killed at 25 days
[2] = experiment #1, combined same doses
[3] = experiment #2, DOX 10 mg/kg i.v. +3 days, NAC 1 g/kg i.p. -8 h/+8 days, DOX+NAC same doses, killed at 29 days
[4] = experiment #2, DOX 10 mg/kg i.v. +3 days, NAC 1 g/kg i.p. daily -8 h/+8 days, combined same doses
[5] = experiment #2, NAC 1 g/kg i.p. daily -8 h/+8 days
[6] = experiment #3, DOX 1 mg/kg i.v. +24 h, NAC 6.4 mg/kg i.v. +24 h, combined in the same injection
[7] = experiment #3, DOX 1 mg/kg i.v. +24 h, NAC 6,4 mg/kg i.v. +24 h, DOX+NAC mixed in the same syringe, killed at 27 days
[8] = experiment #4, DOX 1 mg/kg i.v. +24 h, NAC 10 mM in cancer cells culture medium, combined same doses
[9] = experiment #4, DOX 1 mg/kg i.v. +24 h, NAC 10 mM in culture medium of the injected cancer cells, DOX+NAC same doses, killed at 27 days

Compound	Lung metastases No. (mean ± ES) [1] [No.]	Mice with metastases (No.) 0 [1] [No.]	Mice with metastases (No.) 1-10 [1] [No.]	Mice with metastases (No.) 11-50 [1] [No.]	Mice with metastases (No.) ≥51 [1] [No.]	reduction in the number of lung metastases with respect to untreated controls [2] [fold]	Lung metastases No. (mean ± ES) [3] [No.]	Mice with metastases (No.) 0 [3] [No.]	Mice with metastases (No.) 1-10 [3] [No.]	Mice with metastases (No.) 11-50 [3] [No.]	Mice with metastases (No.) ≥51 [3] [No.]	reduction in the number of lung metastases with respect to controls [4] [fold]	reduction in the number of lung metastases with respect to controls [6] [fold]	Lung metastases No. (mean ± ES) [7] [No.]	Mice with metastases (No.) 0 [7] [No.]	Mice with metastases (No.) 1-10 [7] [No.]	Mice with metastases (No.) 11-50 [7] [No.]	Mice with metastases (No.) ≥51 [7] [No.]	reduction in the number of lung metastases with respect to controls [8] [fold]	Lung metastases No. (mean ± ES) [9] [No.]	other results
CC(=O)N[C@@H](CS)C(=O)O [NAC, N-acetyl-cysteine]	42.1 ± 15.8	0	3	7	2	1.3	25.1 ± 10.2	5	4	3	3	0.5	2.8	13.1 ± 8.9	5	2	3	1	14.7	2.5 ± 0.7	frequency of animals with metastases (effect in words) [5]: did not affect; multiplicity of lung metastases (effect in words) [5]: even increased their multiplicity, but not to a significant extent; Mice with metastases (No.) 0 [9]: 4 No.; Mice with metastases (No.) 1-10 [9]: 7 No.; Mice with metastases (No.) 11-50 [9]: 0 No.; Mice with metastases (No.) ≥51 [9]: 0 No.
COc1cccc2c1C(=O)c1c(O)c3c(c(O)c1C2=O)C[C@@](O)(C(=O)CO)C[C@@H]3O[C@H]1C[C@H](N)[C@H](O)[C@H](C)O1 [DOX, Doxorubicin]	13.1 ± 11.6	2	4	5	0	4.1	0.7 ± 0.3	10	5	0	0	17.4	1.3	29.2 ± 13.7	3	5	0	3	1.3	29.2 ± 13.7	frequency of mice affected by metastases (experiment #2, DOX 10 mg/kg i.v. +3 days, NAC 1 g/kg i.p. daily, controls 66.7%): 33.3%; Mice with metastases (No.) 0 [9]: 3 No.; Mice with metastases (No.) 1-10 [9]: 5 No.; Mice with metastases (No.) 11-50 [9]: 0 No.; Mice with metastases (No.) ≥51 [9]: 3 No.; modulating the induction of lung metastases (effect in words) (experiments #3 and #4, DOX 1 mg/kg i.v. +24 h): almost ineffective at all
